Experimental data from the supplement of paper PMC10307832.

Columns and labels:
Experiment in all cases: relative viability (nuclei count vs DMSO), 5 days (fraction); higher = more cells survive
Linsitinib + Lapatinib = compound: C[C@]1(O)C[C@@H](c2nc(-c3ccc4ccc(-c5ccccc5)nc4c3)c3c(N)nccn32)C1 [Linsitinib] + CS(=O)(=O)CCNCc1ccc(-c2ccc3ncnc(Nc4ccc(OCc5cccc(F)c5)c(Cl)c4)c3c2)o1 [Lapatinib] (partner 2 µM)
Procedure, shortened: (§1)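 Nuclei were stained with Hoechst during a one-step fixation (final 0.05% Triton X-100, 1% formaldehyde, 1 ug/ml Hoechst) carried out 5 days after dosing, then counted on 4× images. The cells, lung cancer lines in 1536-well plates, had been dosed by pin tool the day after seeding with one drug alone or a fixed anchor-drug dose plus five library-drug doses (not always all listed) in √10 steps. Relative viability is the nuclei count in treated wells divided by that in vehicle wells, and each value is the median of duplicate plates.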

Linsitinib + Vorinostat = compound: C[C@]1(O)C[C@@H](c2nc(-c3ccc4ccc(-c5ccccc5)nc4c3)c3c(N)nccn32)C1 [Linsitinib] + O=C(CCCCCCC(=O)Nc1ccccc1)NO [Vorinostat] (partner 1 µM)
Procedure, shortened: as §1

Ispinesib + Palbociclib = compound: Cc1ccc(C(=O)N(CCCN)[C@@H](c2nc3cc(Cl)ccc3c(=O)n2Cc2ccccc2)C(C)C)cc1 [Ispinesib] + CC(=O)c1c(C)c2cnc(Nc3ccc(N4CCNCC4)cn3)nc2n(C2CCCC2)c1=O [Palbociclib] (partner 0.5 µM)
Procedure, shortened: as §1

Ispinesib + Linsitinib = compound: Cc1ccc(C(=O)N(CCCN)[C@@H](c2nc3cc(Cl)ccc3c(=O)n2Cc2ccccc2)C(C)C)cc1 [Ispinesib] + C[C@]1(O)C[C@@H](c2nc(-c3ccc4ccc(-c5ccccc5)nc4c3)c3c(N)nccn32)C1 [Linsitinib] (partner 1 µM)
Procedure, shortened: as §1

For PC-14, the relative viability (Linsitinib + Lapatinib; first compound 0.01 µM) was 0.281, the relative viability (Linsitinib + Lapatinib; first compound 0.03162 µM) was 0.301 and the relative viability (Linsitinib + Lapatinib; first compound 0.1 µM) was 0.303. The relative viability (Linsitinib + Lapatinib; first compound 0.3162 µM) was 0.31, the relative viability (Linsitinib + Lapatinib; first compound 1 µM) was 0.257 and the relative viability (Linsitinib + Vorinostat; first compound 0.01 µM) was 0.668. It also gave a relative viability (Linsitinib + Vorinostat; first compound 0.03162 µM) of 0.566, a relative viability (Linsitinib + Vorinostat; first compound 0.1 µM) of 0.808 and a relative viability (Linsitinib + Vorinostat; first compound 0.3162 µM) of 0.517. The relative viability (Linsitinib + Vorinostat; first compound 1 µM) was 0.52, the relative viability (Ispinesib + Palbociclib; first compound 0.001 µM) was 0.493 and the relative viability (Ispinesib + Palbociclib; first compound 0.003162 µM) was 0.439. For the same cell line, the relative viability (Ispinesib + Palbociclib; first compound 0.01 µM) was 0.134, the relative viability (Ispinesib + Palbociclib; first compound 0.03162 µM) was 0.0579 and the relative viability (Ispinesib + Palbociclib; first compound 0.1 µM) was 0.152. For the same cell line, the relative viability (Ispinesib + Linsitinib; first compound 0.001 µM) was 1.08, the relative viability (Ispinesib + Linsitinib; first compound 0.003162 µM) was 1.13 and the relative viability (Ispinesib + Linsitinib; first compound 0.01 µM) was 1.1. For the same cell line, the relative viability (Ispinesib + Linsitinib; first compound 0.03162 µM) was 0.862 and the relative viability (Ispinesib + Linsitinib; first compound 0.1 µM) was 0.17.

With COR-L23 the relative viability (Linsitinib + Lapatinib; first compound 0.01 µM) was 0.798, the relative viability (Linsitinib + Lapatinib; first compound 0.03162 µM) was 0.916 and the relative viability (Linsitinib + Lapatinib; first compound 0.1 µM) was 1.16. The relative viability (Linsitinib + Lapatinib; first compound 0.3162 µM) was 0.825, the relative viability (Linsitinib + Lapatinib; first compound 1 µM) was 0.944 and the relative viability (Linsitinib + Vorinostat; first compound 0.01 µM) was 0.431. For the same cell line, the relative viability (Linsitinib + Vorinostat; first compound 0.03162 µM) was 0.267, the relative viability (Linsitinib + Vorinostat; first compound 0.1 µM) was 0.402 and the relative viability (Linsitinib + Vorinostat; first compound 0.3162 µM) was 0.357. The relative viability (Linsitinib + Vorinostat; first compound 1 µM) was 0.302, the relative viability (Ispinesib + Palbociclib; first compound 0.001 µM) was 0.261 and the relative viability (Ispinesib + Palbociclib; first compound 0.003162 µM) was 0.267. For the same cell line, the relative viability (Ispinesib + Palbociclib; first compound 0.01 µM) was 0.217, the relative viability (Ispinesib + Palbociclib; first compound 0.03162 µM) was 0.148 and the relative viability (Ispinesib + Palbociclib; first compound 0.1 µM) was 0.171. It also gave a relative viability (Ispinesib + Linsitinib; first compound 0.001 µM) of 1.12, a relative viability (Ispinesib + Linsitinib; first compound 0.003162 µM) of 0.946 and a relative viability (Ispinesib + Linsitinib; first compound 0.01 µM) of 1. The relative viability (Ispinesib + Linsitinib; first compound 0.03162 µM) was 0.161 and the relative viability (Ispinesib + Linsitinib; first compound 0.1 µM) was 0.16.

H3255 was tested, and the relative viability (Linsitinib + Lapatinib; first compound 0.01 µM) was 0.247, the relative viability (Linsitinib + Lapatinib; first compound 0.03162 µM) was 0.284 and the relative viability (Linsitinib + Lapatinib; first compound 0.1 µM) was 0.19. For the same cell line, the relative viability (Linsitinib + Lapatinib; first compound 0.3162 µM) was 0.245, the relative viability (Linsitinib + Lapatinib; first compound 1 µM) was 0.206 and the relative viability (Linsitinib + Vorinostat; first compound 0.03162 µM) was 0.761. For the same cell line, the relative viability (Linsitinib + Vorinostat; first compound 0.1 µM) was 0.698, the relative viability (Linsitinib + Vorinostat; first compound 0.3162 µM) was 0.396 and the relative viability (Linsitinib + Vorinostat; first compound 1 µM) was 0.682. For the same cell line, the relative viability (Ispinesib + Palbociclib; first compound 0.001 µM) was 0.309, the relative viability (Ispinesib + Palbociclib; first compound 0.003162 µM) was 0.339 and the relative viability (Ispinesib + Palbociclib; first compound 0.01 µM) was 0.347. The relative viability (Ispinesib + Palbociclib; first compound 0.03162 µM) was 0.294, the relative viability (Ispinesib + Palbociclib; first compound 0.1 µM) was 0.291 and the relative viability (Ispinesib + Linsitinib; first compound 0.001 µM) was 0.919. The relative viability (Ispinesib + Linsitinib; first compound 0.003162 µM) was 1.19, the relative viability (Ispinesib + Linsitinib; first compound 0.01 µM) was 1.06 and the relative viability (Ispinesib + Linsitinib; first compound 0.03162 µM) was 0.785. The relative viability (Ispinesib + Linsitinib; first compound 0.1 µM) was 0.292.

NCI-H2126 showed a relative viability (Linsitinib + Lapatinib; first compound 0.01 µM) of 0.774, a relative viability (Linsitinib + Lapatinib; first compound 0.03162 µM) of 0.754 and a relative viability (Linsitinib + Lapatinib; first compound 0.1 µM) of 0.704. For the same cell line, the relative viability (Linsitinib + Lapatinib; first compound 0.3162 µM) was 0.392, the relative viability (Linsitinib + Lapatinib; first compound 1 µM) was 0.455 and the relative viability (Linsitinib + Vorinostat; first compound 0.01 µM) was 0.855. The relative viability (Linsitinib + Vorinostat; first compound 0.03162 µM) was 0.8, the relative viability (Linsitinib + Vorinostat; first compound 0.1 µM) was 0.767 and the relative viability (Linsitinib + Vorinostat; first compound 0.3162 µM) was 0.451. It also gave a relative viability (Linsitinib + Vorinostat; first compound 1 µM) of 0.514, a relative viability (Ispinesib + Palbociclib; first compound 0.001 µM) of 0.335 and a relative viability (Ispinesib + Palbociclib; first compound 0.003162 µM) of 0.393. The relative viability (Ispinesib + Palbociclib; first compound 0.01 µM) was 0.314, the relative viability (Ispinesib + Palbociclib; first compound 0.03162 µM) was 0.339 and the relative viability (Ispinesib + Palbociclib; first compound 0.1 µM) was 0.385. For the same cell line, the relative viability (Ispinesib + Linsitinib; first compound 0.001 µM) was 0.732, the relative viability (Ispinesib + Linsitinib; first compound 0.003162 µM) was 0.739 and the relative viability (Ispinesib + Linsitinib; first compound 0.01 µM) was 0.749. The relative viability (Ispinesib + Linsitinib; first compound 0.03162 µM) was 0.701 and the relative viability (Ispinesib + Linsitinib; first compound 0.1 µM) was 0.775.
